Consider 6 molecules from US20110117020A1, “IMAGING DENDRIMER NANOPROBES AND USES THEREOF” (THE TRUSTEES OF THE UNIVERSITY OF PENNSYLVANIA, priority 2008, published 2011).

The nature of data set [1]: Optical absorption spectra (UV-Vis spectrophotometer). It counts as physicochemical. To be noted: for Absorption log e / Absorption λmax: Table I; for Absorption Q band / Absorption Q band Ig ε / Absorption Soret band / Absorption Soret band Ig ε: Table II. The method, then:
(§1) Quartz fluorometric cells (Starna, Inc, 1 cm optical path length) were used in optical experiments. Optical spectra were recorded on a Perkin-Elmer Lambda 35 UV-Vis spectrophotometer. Steady state fluorescence and phosphorescence measurements were performed on a SPEX Fluorolog-2 spectrofluorometer (Jobin-Yvon Horiba), equipped with an infra-red enhanced R2658P PMT (Hamamatsu). Emission spectra were obtained using solutions with absorption at the excitation maxima of approximately 0.05 OD. Quantum yields of emission of all the synthesized compounds were measured relative to the fluorescence of tetraphenylporphyrin (φfl=0:11 in deox. C6H6).

The nature of data set [2]: Steady state phosphorescence: emission maxima, quantum yields, lifetimes. It counts as physicochemical. As to conditions: for Phosphorescence φ: PhCN, deoxygenated, relative to fluorescence of H2TPP in deoxygenated benzene. The method, then: as §1
The mark [3] stands for this setting: solution in PhCN, deoxygenated by Ar-bubbling.
Setting [4] is: solution in PhCN, deoxygenated by Ar-bubbling, above 900 nm large experimental errors.

Marks after values point to notes of the source that are not given here.

For `O=C(O)c1cc(C(=O)O)cc(C2=C3N=C(C(c4cc(C(=O)O)cc(C(=O)O)c4)=c4c5ccccc5c5[n]4[Pd][n]4c2c2ccccc2c4C(c2cc(C(=O)O)cc(C(=O)O)c2)=C2N=C(C=5c4cc(C(=O)O)cc(C(=O)O)c4)c4ccccc42)c2ccccc23)c1`, in data set [1] (first band), the Absorption log e turned out to be 5.46 and the “Absorption λmax” value is given as 446 nm. Also, in data set [1] (second band), the Absorption log e came out at 5.00 and the “Absorption λmax” value was 635 nm. Moreover, in data set [2] (Table I), the “Phosphorescence λmax” value was determined as 816 nm, the τ0 is 210 μs and the φp stood at 0.09.

On to `O=C(O)c1cc(C(=O)O)cc(C2=C3N=C(C(c4cc(C(=O)O)cc(C(=O)O)c4)=c4c5ccccc5c5[n]4[Pt][n]4c2c2ccccc2c4C(c2cc(C(=O)O)cc(C(=O)O)c2)=C2N=C(C=5c4cc(C(=O)O)cc(C(=O)O)c4)c4ccccc42)c2ccccc23)c1`, for which, in data set [1] (first band), the Absorption log e is 5.23 and the “Absorption λmax” value was found to be 433 nm. Further, in data set [1] (second band), the Absorption log e was 5.00 and the “Absorption λmax” value was 622 nm. In addition, in data set [2] (Table I), the “Phosphorescence λmax” value was 791 nm, the τ0 is 41 μs and the φp is reported as 0.30.

Consider `O=C(O)c1cc(C(=O)O)cc(C2=C3C=CC(=N3)C(c3cc(C(=O)O)cc(C(=O)O)c3)=c3ccc4[n]3[Pt][n]3c2ccc3C(c2cc(C(=O)O)cc(C(=O)O)c2)=C2C=CC(=N2)C=4c2cc(C(=O)O)cc(C(=O)O)c2)c1` [Octacarboxyporphyrin Pt, Octacarboxyporphyrin], for which, in data set [1] (first band), the Absorption log e stood at 5.54 and the “Absorption λmax” value is given as 406 nm. For the same molecule, in data set [1] (second band), the Absorption log e is reported as 4.50 and the “Absorption λmax” value stood at 512 nm. In data set [2] (Table I), this molecule came in with a τ0 of 53 μs and a φp of 0.24.

Take `O=C(O)c1cc(C(=O)O)cc(C2=C3N=C(C(c4cc(C(=O)O)cc(C(=O)O)c4)=c4c5cc6ccccc6cc5c5[n]4[Pt][n]4c2c2cc6ccccc6cc2c4C(c2cc(C(=O)O)cc(C(=O)O)c2)=C2N=C(C=5c4cc(C(=O)O)cc(C(=O)O)c4)c4cc5ccccc5cc42)c2cc4ccccc4cc23)c1` [Octacarboxytetra naphthoporphyrin Pt, Octacarboxytetra naphthoporphyrin]: in data set [1] (first band), the Absorption log e stood at 5.14 and the “Absorption λmax” value is recorded as 441 nm. In data set [1] (second band), the Absorption log e is 5.28 and the “Absorption λmax” value is 700 nm. In data set [2] (Table I), the “Phosphorescence λmax” value is 923 nm, the τ0 came out at 12 μs and the φp is reported as 0.06.

`CCCCOC(=O)c1cc(C(=O)OCCCC)cc(C2=C3C=CC(=N3)C(c3cc(C(=O)OCCCC)cc(C(=O)OCCCC)c3)=c3ccc4[n]3[Pd][n]3c2ccc3C(c2cc(C(=O)OCCCC)cc(C(=O)OCCCC)c2)=C2C=CC(=N2)C=4c2cc(C(=O)OCCCC)cc(C(=O)OCCCC)c2)c1` [Pd-1-OBu]: in data set [1], the “Absorption Q band” value came to 526 nm, the “Absorption Q band Ig ε” value stood at 4.57, the “Absorption Soret band” value was 422 nm and the “Absorption Soret band Ig ε” value came to 5.61. Also, in data set [2], the “Phosphorescence φ” value was determined as 0.08. Moreover, the “Phosphorescence τ0” value in data set [2] (setting [3]) is on record as 504 μs. Further, the “Phosphorescence λmax” value in data set [2] (setting [4]) is 696 nm.

With `CCCCOC(=O)c1cc(C(=O)OCCCC)cc(C2=C3N=C(C(c4cc(C(=O)OCCCC)cc(C(=O)OCCCC)c4)=c4c5cc6ccccc6cc5c5[n]4[Pd][n]4c2c2cc6ccccc6cc2c4C(c2cc(C(=O)OCCCC)cc(C(=O)OCCCC)c2)=C2N=C(C=5c4cc(C(=O)OCCCC)cc(C(=O)OCCCC)c4)c4cc5ccccc5cc42)c2cc4ccccc4cc23)c1` [Pd-3-OBu], in data set [1], the “Absorption Q band” value is listed as 716 nm, the “Absorption Q band Ig ε” value turned out to be 5.29, the “Absorption Soret band” value stood at 458 nm and the “Absorption Soret band Ig ε” value is given as 5.29. The “Phosphorescence φ” value in data set [2] is recorded as 0.02. Moreover, the “Phosphorescence τ0” value in data set [2] (setting [3]) is given as 52 μs. Besides, the “Phosphorescence λmax” value in data set [2] (setting [4]) was 961 [c] nm.
